Tests used:
[1] = system: estrogen-binding protein (ER-X); assay: DES-sensitive 3H-estradiol binding in CLM preparations and lysates; set-up: species or system mouse
Description: Caveolar-like membrane (CLM) preparation. Membrane fractions were prepared by adapting the detergent-free method of Smart et al. (Smart, 1995). Briefly, pools of 40-50 P7 ERKO neocortices were homogenized in 20 mM Tricine, pH 7.8 buffer, containing 1 mM EDTA, 0.25M sucrose and 1 mM dithiothreitol (TESD buffer), then centrifuged at 1000×g at 4° C. for 10 minutes. The pellet was resuspended in TESD buffer, re-centrifuged, and the supernatants pooled. The combined supernatants were subjected to Percoll® gradient fractionation in the same buffer to isolate the plasma membrane fraction. In some binding experiments (indicated below), Percoll® purified plasma membranes were used without further fractionation. For preparation of CLMs, plasma-membranes were sonicated and further separated by centrifugation on a linear 20% to 10% OptiPrep (iodixanol) gradient (Nycomed Pharma AS, Oslo, Norway). Based upon their light buoyant density, CLMs were separated and purified from non-CLMs using two OptiPrep density gradients. […] Electrophoretically separated CLMs on PVDF membranes were probed with antibodies specific for ER-α ([…], UBI; MC20, Santa Cruz), ER-β (Zymed), flotillin (BD Transduction Labs) and other caveolar-resident proteins (PKC-α and PKC-γ, BD Transduction Labs) and non-caveolar-resident proteins (paxillin, BD Transduction Labs). Estrogen binding assay. Duplicate aliquots of 1 mg each of protein lysate from ERKO P7 neocortex or wild-type adult uterus were pre-cleared for 30 minutes using anti-rabbit-IgG-coated magnetic beads (Dynal AS). Pre-cleared protein lysates were immunoprecipitated with anti-ER-α antibodies (6F11, Novocastra; or MC20, Santa Cruz) at 4° C. overnight. […] NEN Life Sciences, Boston, Mass.) at 4° C. for 18 hours. The incubation was terminated by adsorption of the binding sites onto an equal volume of hydroxylapatite (HAP) slurry in TESD buffer. HAP pellets were washed four times with Tris-buffered saline containing 0.2% Tween-20 buffer and extracted with 1 ml absolute ethanol overnight at room temperature. The ethanol supernatants were transferred to liquid scintillation fluid (5 ml) and counted. Control tubes, used in assessing HAP adsorption of free steroid, contained HAP and the same buffer constituents, without addition of the membranes. Non-specific binding was assayed in the membranes using the same amount of radioactive ligand plus 200-fold molar excess of unlabeled diethylstilbestrol (DES) (Sigma-Aldrich). Specific binding was calculated by subtracting non-specific from total binding.

[2] = target: ER-X (plasma-membrane estrogen binding site of P7 ERKO and wild-type neocortex); assay: 3H-estradiol saturation binding to Percoll-purified neocortical plasma-membranes; set-up: species or system mouse; details: Percoll-purified plasma-membranes from P7 ERKO and wild-type neocortex, 50 μg/tube, 18 hours at 4° C.; read-out: equilibrium dissociation constant, Kd
Description: Binding of ^3H estradiol to Percoll®-purified plasma-membranes from P7 ERKO and wild-type mouse neocortex. (a) Identical amounts of membrane protein (50 μg/tube) were incubated with varying concentrations of ^3H estradiol (0.3-8 nM) for 18 hours at 4° C. The reaction was terminated by addition of hydroxylapatite (HAP). The membranes and HAP were sedimented by centrifugation in a microfuge, and the pellet washed 4 times to remove free steroid. Radioactivity in the pellets was extracted with ethanol and counted. […] (b) Specificity of the binding site in Percoll®-purified membranes from P7 ERKO mouse neocortex. […] Bound ^3H estradiol was separated by sedimentation with HAP and counted at an efficiency of 50%. Data represent the number of bound counts (after subtraction of HAP-only blank control tubes, containing no membrane protein) expressed as the means +/-S.D. of triplicate determinations. The horizontal dashed line indicates the level of non-specific binding observed in the presence of 1 μM DES. Caveolar-like membrane (CLM) preparation. Membrane fractions were prepared by adapting the detergent-free method of Smart et al. (Smart, 1995). […] The ethanol supernatants were transferred to liquid scintillation fluid (5 ml) and counted. […] Specific binding was calculated by subtracting non-specific from total binding.

- DES-sensitive estrogen binding ([1]; P7 ERKO neocortical lysates): 9.94 fmol/mg lysate protein
- DES-sensitive estrogen binding ([1]; neocortical CLM preparations from P7 ERKO mice, 10 nM 3H-estradiol): 282.12 fmol/mg CLM protein
- DES-sensitive estrogen binding ([1]; wild-type adult uterine lysates): 38.85 fmol/mg lysate protein
- Kd [2]: ~1.6 nM
SMILES: C[C@]12CC[C@@H]3c4ccc(O)cc4CC[C@H]3[C@@H]1CC[C@@H]2O [^3H-estradiol, 2,4,6,7, 16, 17-^3H estradiol]

Source: patent publication US20050074777A1, “Novel cell-surface estrogen receptor and related compositions and methods” (priority 2002, published 2005)
